One may read the half-life as how long it takes for the measured level to halve. Higher therefore signals slow decline. What is called IC50 is the point on the concentration scale where inhibition reaches its midpoint.

Like-named read-outs stand apart in the source and are kept apart here. Numbered stars: 1 amine (or outer) side, 2 acyl side, 3 side chain; on linkers, the order of the positions; unused ones are H or OH. Bridge positions count the residues as written; N and C are the ends. Square brackets hold non-standard residues; d marks the D form. Peptide text beside a SMILES is read from it. Trp(7-Me) = Cc1cccc2c(C[C@H](N)C(=O)O)c[nH]c12; Abu(4-yl) = O=C([C@H](CC[*:3])N[*:1])[*:2]; 2Nal = N[C@@H](Cc1ccc2ccccc2c1)C(=O)O; AEF = NCCOc1ccc(C[C@H](N)C(=O)O)cc1; αMeK = C[C@](N)(CCCCN)C(=O)O A value given as a limit tells only on which side of the number the result lay.

We go through 14 molecules from patent publication US20260116921A1, “PEPTIDE INHIBITORS OF INTERLEUKIN-23 RECEPTOR AND THEIR USE TO TREAT INFLAMMATORY DISEASES” (priority 2018, published 2026).

The nature of data set [1]: in vitro. Particulars: both, SD, rat, plasma (EDTA).
The target of the next data set is T1, IL-23R (Homo sapiens, UniProt Q5VWK5).
T1 sequence (Q5VWK5 24-629): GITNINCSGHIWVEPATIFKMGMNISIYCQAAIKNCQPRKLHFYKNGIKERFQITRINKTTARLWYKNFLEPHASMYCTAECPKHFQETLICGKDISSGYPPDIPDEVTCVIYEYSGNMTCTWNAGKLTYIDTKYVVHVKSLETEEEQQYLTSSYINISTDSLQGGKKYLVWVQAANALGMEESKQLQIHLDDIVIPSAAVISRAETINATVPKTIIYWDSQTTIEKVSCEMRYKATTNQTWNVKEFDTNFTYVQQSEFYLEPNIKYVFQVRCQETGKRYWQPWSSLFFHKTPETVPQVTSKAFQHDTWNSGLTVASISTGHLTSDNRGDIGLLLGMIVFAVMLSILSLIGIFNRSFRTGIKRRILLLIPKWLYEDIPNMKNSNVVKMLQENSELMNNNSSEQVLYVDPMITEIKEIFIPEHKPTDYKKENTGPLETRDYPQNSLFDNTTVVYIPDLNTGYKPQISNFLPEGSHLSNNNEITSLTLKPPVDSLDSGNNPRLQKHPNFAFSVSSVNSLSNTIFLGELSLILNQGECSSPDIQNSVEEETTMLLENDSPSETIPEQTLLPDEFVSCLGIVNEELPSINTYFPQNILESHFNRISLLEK
Description: DB cells IL23R pSTAT3 cell assay (pStat3 HTRF). The data set is classed as cell-based. The gist of the method:
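DB cells (5×10E5/well, RPMI-1640 + 10% FBS) stimulated with 0.5 nM final IL-23 plus serially diluted test peptides for 30 min at 37 °C, 5% CO2. Phospho-STAT3 (Tyr705) in lysates measured by HTRF using a two-plate protocol.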
Background: TR-FRET usually uses a lanthanide donor and a delayed reading to cut background.

Data set [2] in a line: in vitro. The note with it: cynomolgus monkey, 20% fecal homogenate (supernatant), anaerobic, pH 6.8.
A short description of data set [3]: in vitro. Particulars: human, 20% fecal homogenate (supernatant), anaerobic, pH 6.8.
The mark [4] stands for this setting: Table E3, DB cells, IL-23 0.5 nM, 30 minutes at 37° C., read-out: pStat3 HTRF (IC50).

As for `CC(=O)NCCCC[C@H](NC(=O)[C@](C)(CC(C)C)NC(=O)[C@H](Cc1ccc2ccccc2c1)NC(=O)[C@H](Cc1ccc(OCCN)cc1)NC(=O)[C@H]1NC(=O)[C@H](CCC(N)=O)NC(=O)[C@H](Cc2c[nH]c3c(C)cccc23)NC(=O)[C@H]([C@@H](C)O)NC(=O)[C@H](CC(N)=O)NC(=O)[C@@H](NC(C)=O)C(C)(C)SSC1(C)C)C(=O)N[C@H](CC(C)C)C(=O)NCCC(N)=O` [compound 210], the figures for the half-life at 20 μM in the data set “in vitro [1]”, in the data set “in vitro [2]” and in the data set “in vitro [3]” were < 0.3 h, > 24 h and > 24 h, respectively. Also, at IL-23R (setting [4]), the concentration for half-maximal inhibition (IC50) was in the range of 10 to 100 nM.

As to `CC(=O)NCCCC[C@H](NC(=O)[C@](C)(CC(C)C)NC(=O)[C@H](Cc1ccc2ccccc2c1)NC(=O)[C@H](Cc1ccc(OCCN)cc1)NC(=O)[C@H]1NC(=O)[C@H](CCC(N)=O)NC(=O)[C@H](Cc2c[nH]c3c(C)cccc23)NC(=O)[C@H]([C@@H](C)O)NC(=O)[C@H](CC(N)=O)NC(=O)[C@@H](NC(C)=O)C(C)(C)SSC1(C)C)C(=O)N[C@H](C)C(=O)NCCC(N)=O` [compound 209], the half-life at 20 μM in “in vitro [1]” is 1 h; in the data set “in vitro [2]”, > 24 h; in the data set “in vitro [3]”, > 24 h. For the same molecule, on IL-23R (setting [4]), the IC50 lay in the range of 1 to 10 nM.

Regarding `CC(=O)NCCCC[C@H](NC(=O)[C@](C)(CCCCN)NC(=O)[C@H](Cc1ccc2ccccc2c1)NC(=O)[C@H](Cc1ccc(OCCN)cc1)NC(=O)[C@H]1NC(=O)[C@H](CCC(N)=O)NC(=O)[C@H](Cc2c[nH]c3cc(Cl)ccc23)NC(=O)[C@H]([C@@H](C)O)NC(=O)[C@H](CC(N)=O)NC(=O)[C@@H](NC(C)=O)C(C)(C)SSC1(C)C)C(=O)N[C@@H](CC(N)=O)C(=O)NCCC(N)=O` [compound 228], the half-life at 20 μM in “in vitro [1]” is > 24 h; in the data set “in vitro [2]”, 13 h; in the data set “in vitro [3]”, > 24 h. For the same molecule, the IC50 on IL-23R (setting [4]) lay in the range of 10 to 100 nM.

With `CC(=O)NCCCC[C@@H]1NC(=O)[C@H](Cc2c[nH]c3c(C)cccc23)NC(=O)[C@H]([C@@H](C)O)NC(=O)[C@H](CC(N)=O)NC(=O)[C@@H](NC(C)=O)C(C)(C)SSC(C)(C)[C@@H](C(=O)N[C@@H](Cc2ccc(OCCN)cc2)C(=O)N[C@@H](Cc2ccc3ccccc3c2)C(=O)N[C@@](C)(CCCCN)C(=O)N[C@@H](CCCCNC(C)=O)C(=O)NCCC(=O)NCCC(N)=O)NC1=O` [compound 270], the half-life at 20 μM in the data set “in vitro [1]”, in the data set “in vitro [2]” and in “in vitro [3]” was > 24 h in each case. In addition, on IL-23R (setting [4]), the half-maximal inhibitory concentration (IC50) was 1 to 10 nM.

Take `CC(=O)NCCCC[C@H](NC(=O)[C@](C)(CCCCN)NC(=O)[C@H](Cc1ccc2ccccc2c1)NC(=O)[C@H](Cc1ccc(OCCN)cc1)NC(=O)[C@H]1NC(=O)[C@H](CCC(N)=O)NC(=O)[C@H](Cc2c[nH]c3cc(C)ccc23)NC(=O)[C@H]([C@@H](C)O)NC(=O)[C@H](CC(N)=O)NC(=O)[C@@H](NC(C)=O)C(C)(C)SSC1(C)C)C(=O)N[C@@H](CC(N)=O)C(=O)NCCC(N)=O` [compound 230]: on IL-23R (setting [4]), the IC50 is 10 to 100 nM. The half-life at 20 μM in “in vitro [2]” is 10 h; in the data set “in vitro [3]”, > 24 h.

Regarding `CC(=O)NCCCC[C@H](NC(=O)C1(NC(=O)[C@H](Cc2ccc3ccccc3c2)NC(=O)[C@H](Cc2ccc(OCCN)cc2)NC(=O)[C@H]2NC(=O)[C@H](CCC(N)=O)NC(=O)[C@H](Cc3c[nH]c4c(C)cccc34)NC(=O)[C@H]([C@@H](C)O)NC(=O)[C@H](CC(N)=O)NC(=O)[C@@H](NC(C)=O)C(C)(C)SSC2(C)C)CCC1)C(=O)N[C@@H](CC(N)=O)C(=O)NCCC(N)=O` [compound 277], the half-life at 20 μM is 6 h in “in vitro [1]” and 5 h in the data set “in vitro [2]”. The IC50 at IL-23R (setting [4]) is < 1 nM.

Turning to `CC(=O)NCCCC[C@@H]1NC(=O)[C@H](Cc2c[nH]c3c(C)cccc23)NC(=O)[C@H]([C@@H](C)O)NC(=O)[C@H](CC(N)=O)NC(=O)[C@@H](NC(C)=O)C(C)(C)SSC(C)(C)[C@@H](C(=O)N[C@@H](Cc2ccc(OCCN)cc2)C(=O)N[C@@H](Cc2ccc3ccccc3c2)C(=O)N[C@@](C)(CCCCN)C(=O)N[C@@H](CCCCNC(C)=O)C(=O)N[C@@H](CC(N)=O)C(=O)N(C)[C@@H](CCCNC(=N)N)C(N)=O)NC1=O` [compound 246], the half-life at 20 μM in “in vitro [1]”, in “in vitro [2]” and in the data set “in vitro [3]” was > 24 h each time. Moreover, at IL-23R (setting [4]), the half-inhibitory concentration (IC50) was 1 to 10 nM.

For `CC(=O)NCCCC[C@H](NC(=O)[C@](C)(CC(C)C)NC(=O)[C@H](Cc1ccc2ccccc2c1)NC(=O)[C@H](Cc1ccc(OCCN)cc1)NC(=O)[C@H]1NC(=O)[C@H](CCC(N)=O)NC(=O)[C@H](Cc2c[nH]c3c(C)cccc23)NC(=O)[C@H]([C@@H](C)O)NC(=O)[C@H](CC(N)=O)NC(=O)[C@@H](NC(C)=O)C(C)(C)SSC1(C)C)C(=O)N[C@H](CO)C(=O)NCCC(N)=O` [compound 222], at IL-23R (setting [4]), the IC50 lay in the range of 1 to 10 nM. For the same molecule, the half-life at 20 μM in “in vitro [2]” and in “in vitro [3]” was > 24 h throughout.

With `CC(=O)NCCCC[C@@H]1NC(=O)[C@H](Cc2c[nH]c3c(C)cccc23)NC(=O)[C@H]([C@@H](C)O)NC(=O)[C@H](CC(N)=O)NC(=O)[C@@H](NC(C)=O)C(C)(C)SSC(C)(C)[C@@H](C(=O)N[C@@H](Cc2ccc(OCCN)cc2)C(=O)N[C@@H](Cc2ccc3ccccc3c2)C(=O)N[C@@](C)(CCCCN)C(=O)N[C@@H](CCCCNC(C)=O)C(=O)N[C@@H](CC(N)=O)C(=O)N[C@H](CC(C)C)C(N)=O)NC1=O` [compound 245], the half-life at 20 μM in the data set “in vitro [1]”, in the data set “in vitro [2]” and in “in vitro [3]” was > 24 h in each case. The IC50 on IL-23R (setting [4]) was < 1 nM.

As to `CC(=O)NCCCC[C@H](NC(=O)[C@](C)(CC(C)C)NC(=O)[C@H](Cc1ccc2ccccc2c1)NC(=O)[C@H](Cc1ccc(OCCN)cc1)NC(=O)[C@H]1NC(=O)[C@H](CCC(N)=O)NC(=O)[C@H](Cc2c[nH]c3c(C)cccc23)NC(=O)[C@H]([C@@H](C)O)NC(=O)[C@H](CC(N)=O)NC(=O)[C@@H](NC(C)=O)C(C)(C)SSC1(C)C)C(=O)N1CCC[C@@H]1C(=O)NCCC(N)=O` [compound 212], on IL-23R (setting [4]), the 50% inhibitory concentration (IC50) was in the range of 10 to 100 nM. Further, the half-life at 20 μM in “in vitro [2]” and in “in vitro [3]” was > 24 h each time.

On to `CC(=O)NCCCC[C@@H]1NC(=O)[C@H](Cc2c[nH]c3c(C)cccc23)NC(=O)[C@H]([C@@H](C)O)NC(=O)[C@H](CCC(N)=O)NC(=O)[C@@H](NC(=O)[C@@H](CCCNC(=N)N)NC(C)=O)CCSC[C@@H](C(=O)N[C@@H](Cc2ccc(OCCN)cc2)C(=O)N[C@@H](Cc2ccc3ccccc3c2)C(=O)N[C@@](C)(CCCCN)C(=O)N[C@@H](CCCCNC(C)=O)C(=O)N[C@@H](CC(N)=O)C(N)=O)NC1=O` [compound 326] (Ac-[dR][Abu(4-yl)]QT[Trp(7-Me)]K(Ac)C[AEF][2Nal][αMeK]K(Ac)N-NH2; thioether 2-7), for which the IC50 at IL-23R (setting [4]) is 10 to 100 nM. The half-life at 20 μM in “in vitro [2]” and in “in vitro [3]” was 11 h in each case.

Regarding `COc1cccc2[nH]cc(C[C@@H]3NC(=O)[C@H]([C@@H](C)O)NC(=O)[C@H](CC(N)=O)NC(=O)[C@@H](NC(C)=O)C(C)(C)SSC(C)(C)[C@@H](C(=O)N[C@@H](Cc4ccc(OCCN)cc4)C(=O)N[C@@H](Cc4ccc5ccccc5c4)C(=O)N[C@@](C)(CCCCN)C(=O)N[C@@H](CCCCNC(C)=O)C(=O)N[C@@H](CC(N)=O)C(=O)NCCC(N)=O)NC(=O)[C@H](CCC(N)=O)NC3=O)c12` [compound 229], the 50% inhibitory concentration (IC50) at IL-23R (setting [4]) was in the range of 10 to 100 nM. Besides, the results for the half-life at 20 μM in “in vitro [2]” and in the data set “in vitro [3]” were 7 h and > 24 h, respectively.

Consider `CC(=O)NCCCC[C@H](NC(=O)[C@](C)(CCCCN)NC(=O)[C@H](Cc1ccc2ccccc2c1)NC(=O)[C@H](Cc1ccc(OCCN)cc1)NC(=O)[C@H]1NC(=O)[C@H](CCC(N)=O)NC(=O)[C@H](Cc2c[nH]c3cccc(C)c23)NC(=O)[C@H]([C@@H](C)O)NC(=O)[C@H](CC(N)=O)NC(=O)[C@@H](NC(C)=O)C(C)(C)SSC1(C)C)C(=O)N[C@@H](CC(N)=O)C(=O)NCCC(N)=O` [compound 231], for which the IC50 on IL-23R (setting [4]) fell in the range of 1 to 10 nM. Further, the half-life at 20 μM is 15 h in “in vitro [2]” and > 24 h in “in vitro [3]”.

For the molecule `CC(=O)N[C@H](CCCNC(=N)N)C(=O)N[C@H]1CCSC[C@@H](C(=O)N[C@@H](Cc2ccc(OCCN)cc2)C(=O)N[C@@H](Cc2ccc3ccccc3c2)C(=O)NC2(C(=O)N[C@@H](CCC(=O)O)C(=O)N[C@@H](CC(N)=O)C(=O)N[C@@H](CC(N)=O)C(N)=O)CCOCC2)NC(=O)[C@H](CCC(N)=O)NC(=O)[C@H](Cc2c[nH]c3c(C)cccc23)NC(=O)[C@H]([C@@H](C)O)NC(=O)[C@H](CCC(N)=O)NC1=O` [compound 27], the IC50 against IL-23R is < 1 nM. In addition, the half-life at 20 μM in the data set “in vitro [2]” is 3 h.
